According to patent US3945994A, “Novel acid compounds” (Gist-Brocades N.V., priority 1973, dated 1976):
≈ marks a conversion by molar mass, not a printed value. Read-outs that look alike come from different tables or passages of the source.

Assays:
Type in all cases: cell-based
[1] = tested on: Streptococcus faecalis L 80; conditions: Enterococcus faecalis, L80; agar serial dilution, 24 hours at 37°C
[2] = tested on: Proteus morganii 2241; conditions: Morganella morganii, agar serial dilution, 24 hours at 37°C
[3] = tested on: Klebsiella pneumoniae A 809; conditions: A809, agar serial dilution, 24 hours at 37°C
[4] = tested on: Escherichia coli U 20; conditions: U20, agar serial dilution, 24 hours at 37°C
[5] = tested on: Staphylococcus aureus A 2000; conditions: A2000, agar serial dilution, 24 hours at 37°C
[6] = tested on: Bacillus subtilis ATCC 6633; conditions: ATCC6633, agar serial dilution, 24 hours at 37°C
[7] = tested on: Proteus mirabilis H 3; conditions: H3, agar serial dilution, 24 hours at 37°C
[8] = tested on: Pseudomonas aeruginosa 2396; conditions: agar serial dilution, 24 hours at 37°C
[9] = tested on: Diplococcus pneumoniae L 54; conditions: Streptococcus pneumoniae, L54; agar serial dilution, 24 hours at 37°C
[10] = tested on: Streptococcus haemolyticus A 1088; conditions: A1088, agar serial dilution, 24 hours at 37°C
[11] = tested on: Staphylococcus aureus A 2001; conditions: A2001, agar serial dilution, 24 hours at 37°C
[12] = tested on: Proteus rettgeri A 821; assay: micro serial dilution test, MIC; conditions: Providencia rettgeri, A821; micro serial dilution (between brackets), 30°C or 37°C, about 18 hours
[13] = tested on: Proteus mirabilis A 1200; conditions: A1200, agar serial dilution, 24 hours at 37°C
[14] = tested on: Staphylococcus aureus A 321; conditions: A321, agar serial dilution, 24 hours at 37°C
[15] = tested on: Pseudomonas aeruginosa Wyeth A 1058; conditions: WYETHA1058, agar serial dilution, 24 hours at 37°C
[16] = tested on: Pasteurella multocida A 723; conditions: A723, agar serial dilution, 24 hours at 37°C
[17] = tested on: Pseudomonas aeruginosa H 10; conditions: H10, agar serial dilution, 24 hours at 37°C
[18] = tested on: Salmonella dublin P 43; conditions: Salmonella enterica, P43; agar serial dilution, 24 hours at 37°C
[19] = tested on: Staphylococcus aureus A 355'; conditions: agar serial dilution, 24 hours at 37°C
[20] = tested on: Salmonella typhimurium R172; conditions: Salmonella enterica, agar serial dilution, 24 hours at 37°C
[21] = tested on: Proteus rettgeri A 821; conditions: Providencia rettgeri, A821; agar serial dilution, 24 hours at 37°C
[22] = tested on: Streptococcus haemolyticus A 266; conditions: A266, agar serial dilution, 24 hours at 37°C
[23] = tested on: Haemophilus influenzae A 1030; conditions: A1030, agar serial dilution, 24 hours at 37°C
[24] = tested on: Salmonella typhimurium R 127; conditions: Salmonella enterica, agar serial dilution, 24 hours at 37°C
[25] = tested on: Haemophilus influenzae A 1030; assay: micro serial dilution test, MIC; conditions: A1030, micro serial dilution (between brackets), 30°C or 37°C, about 18 hours
[26] = tested on: Proteus mirabilis H3; assay: micro serial dilution test, MIC; conditions: micro serial dilution (between brackets), 30°C or 37°C, about 18 hours
[27] = tested on: Proteus mirabilis A1200; assay: micro serial dilution test, MIC; conditions: micro serial dilution (between brackets), 30°C or 37°C, about 18 hours

Row | SMILES | MIC [1] | MIC [2] | MIC [3] | MIC [4] | MIC [5] | MIC [6] | MIC [7] | MIC [8] | MIC [9] | MIC [11] | MIC [12] | MIC [13] | MIC [14] | MIC [15] | MIC [16] | MIC [17] | MIC [18] | MIC [19] | MIC [20] | MIC [25] | other results
1 | Cc1nnc(SCC2=C(C(=O)O)N3C(=O)[C@@H](NC(=O)Cn4cnnn4)[C@H]3SC2)s1 [cephazolin, reference compound] | 12.5 µg/mL (≈ 27.5 µM) | 25 µg/mL (≈ 55 µM) | 1.5 µg/mL (≈ 3.3 µM) | 1.5 µg/mL (≈ 3.3 µM) | 0.75 µg/mL (≈ 1.65 µM) | 0.25 µg/mL (≈ 0.55 µM) | 6 µg/mL (≈ 13.2 µM) | > 100 µg/mL | 0.25 µg/mL (≈ 0.55 µM) | 0.5 µg/mL (≈ 1.1 µM) | 1.2 µg/mL (≈ 2.64 µM) | 6 µg/mL (≈ 13.2 µM) | 0.25 µg/mL (≈ 0.55 µM) | > 100 µg/mL | 1.5 µg/mL (≈ 3.3 µM) | > 100 µg/mL | 1.5 µg/mL (≈ 3.3 µM) | 1.5 µg/mL (≈ 3.3 µM) | 3 µg/mL (≈ 6.6 µM) |  | MIC [10]: 0.12 µg/mL (≈ 0.264 µM)
2 | CCOC(=O)NNS(=O)(=O)NC(=O)N[C@@H](C(=O)N[C@@H]1C(=O)N2[C@@H]1SC(C)(C)[C@@H]2C(=O)O)c1ccccc1 [XV, D-6-[α-{3-(ethoxycarbonylhydrazinosulfonyl)-ureido}benzylcarbonamido]-penicillanic acid] | 25 µg/mL (≈ 44.8 µM) | 6 µg/mL (≈ 10.7 µM) | 100 µg/mL (≈ 179 µM) | 12.5 µg/mL (≈ 22.4 µM) | 12.5 µg/mL (≈ 22.4 µM) | 1 µg/mL (≈ 1.79 µM) | 3 µg/mL (≈ 5.37 µM) | 50 µg/mL (≈ 89.5 µM) | 9 µg/mL (≈ 16.1 µM) | 6 µg/mL (≈ 10.7 µM) |  | 1.5 µg/mL (≈ 2.69 µM) | 1.5 µg/mL (≈ 2.69 µM) | 100 µg/mL (≈ 179 µM) | 0.25 µg/mL (≈ 0.448 µM) | > 100 µg/mL | 12.5 µg/mL (≈ 22.4 µM) | 12.5 µg/mL (≈ 22.4 µM) |  |  | MIC [21]: 1 µg/mL (≈ 1.79 µM); MIC [22]: 0.5 µg/mL (≈ 0.895 µM); MIC [23]: 1.5 µg/mL (≈ 2.69 µM); MIC [24]: 50 µg/mL (≈ 89.5 µM)
3 | CN1CCCC1=NS(=O)(=O)N[C@@H](C(=O)N[C@@H]1C(=O)N2[C@@H]1SC(C)(C)[C@@H]2C(=O)O)c1ccccc1 [XXIII, D-6-[α-{1-(methylpyrrolidin-2-ylidene)-amino-sulfonamido}-benzylcarbonamido] -penicillanic acid] | 1.5 µg/mL (≈ 2.94 µM) | 50 µg/mL (≈ 98.1 µM) | > 100 µg/mL | 100 µg/mL (≈ 196 µM) | 6 µg/mL (≈ 11.8 µM) | 0.12 µg/mL (≈ 0.235 µM) | 50 µg/mL (≈ 98.1 µM) | > 100 µg/mL | 0.5 µg/mL (≈ 0.981 µM) | 3 µg/mL (≈ 5.89 µM) | 0.9 µg/mL (≈ 1.77 µM) | 12.5 µg/mL (≈ 24.5 µM) | 1 µg/mL (≈ 1.96 µM) | > 100 µg/mL | 0.5 µg/mL (≈ 0.981 µM) | > 100 µg/mL | 50 µg/mL (≈ 98.1 µM) | 6 µg/mL (≈ 11.8 µM) | 100 µg/mL (≈ 196 µM) | 125 µg/mL (≈ 245 µM) | MIC [22]: 0.06 µg/mL (≈ 0.118 µM)
4 | CC1(C)S[C@@H]2[C@H](NC(=O)[C@H](NC(=O)NS(=O)(=O)NCc3ccccc3)c3ccccc3)C(=O)N2[C@H]1C(=O)O [XXXII, D-6-[α-{3-(benzylaminosulfonyl)-ureido}-benzylcarbonamido]-penicillanic acid] | 12.5 µg/mL (≈ 22.3 µM) | 12.5 µg/mL (≈ 22.3 µM) | 12.5 µg/mL (≈ 22.3 µM) | 6 µg/mL (≈ 10.7 µM) | 6 µg/mL (≈ 10.7 µM) | 0.5 µg/mL (≈ 0.89 µM) | 6 µg/mL (≈ 10.7 µM) | 25 µg/mL (≈ 44.5 µM) | 50 µg/mL (≈ 89 µM) | 6 µg/mL (≈ 10.7 µM) | 0.025 µg/mL (≈ 0.0445 µM) | 3 µg/mL (≈ 5.34 µM) |  | 12.5 µg/mL (≈ 22.3 µM) | 0.5 µg/mL (≈ 0.89 µM) | 100 µg/mL (≈ 178 µM) | 6 µg/mL (≈ 10.7 µM) | 6 µg/mL (≈ 10.7 µM) | 25 µg/mL (≈ 44.5 µM) | 23 µg/mL (≈ 41 µM) | MIC [10]: 0.25 µg/mL (≈ 0.445 µM)
5 | CC1(C)S[C@@H]2[C@H](NC(=O)C(C(=O)O)c3ccccc3)C(=O)N2[C@H]1C(=O)O (stereo partly drawn) [carbenicillin, reference compound] | 25 µg/mL (≈ 66.1 µM) | 1.5 µg/mL (≈ 3.96 µM) | > 100 µg/mL | 1.5 µg/mL (≈ 3.96 µM) | 3 µg/mL (≈ 7.93 µM) | 0.06 µg/mL (≈ 0.159 µM) |  | 25 µg/mL (≈ 66.1 µM) | 0.5 µg/mL (≈ 1.32 µM) | 3 µg/mL (≈ 7.93 µM) | 0.12 µg/mL (≈ 0.317 µM) |  | 0.75 µg/mL (≈ 1.98 µM) | 25 µg/mL (≈ 66.1 µM) | 0.25 µg/mL (≈ 0.661 µM) | 100 µg/mL (≈ 264 µM) | 1.5 µg/mL (≈ 3.96 µM) |  | 6 µg/mL (≈ 15.9 µM) | 90 µg/mL (≈ 238 µM) | MIC [26]: 0.6 µg/mL (≈ 1.59 µM); MIC [10]: 0.25 µg/mL (≈ 0.661 µM); MIC [27]: 0.45 µg/mL (≈ 1.19 µM)
6 | CC(=NS(=O)(=O)N[C@@H](C(=O)N[C@@H]1C(=O)N2[C@@H]1SC(C)(C)[C@@H]2C(=O)O)c1ccccc1)N(C)C [XXI, D-6-[α-{1-(dimethylamino)-ethylideneamino-sulfonamido}-benzylcarbonamido]-penicillanic acid] | 3 µg/mL (≈ 6.03 µM) | 25 µg/mL (≈ 50.2 µM) | 100 µg/mL (≈ 201 µM) | 100 µg/mL (≈ 201 µM) |  | 0.12 µg/mL (≈ 0.241 µM) | 50 µg/mL (≈ 100 µM) | 100 µg/mL (≈ 201 µM) | 0.75 µg/mL (≈ 1.51 µM) |  | 0.6 µg/mL (≈ 1.21 µM) | 25 µg/mL (≈ 50.2 µM) | 1.5 µg/mL (≈ 3.01 µM) | > 100 µg/mL | 0.75 µg/mL (≈ 1.51 µM) | > 100 µg/mL | 25 µg/mL (≈ 50.2 µM) |  | 100 µg/mL (≈ 201 µM) | 1.8 µg/mL (≈ 3.62 µM) | MIC [22]: 0.12 µg/mL (≈ 0.241 µM)
